Data as given in a melting point compilation (Tetko et al.; mined from patent text by program, amines drawn as free bases though some values may be those of a salt).

Row | melting point | Compound
1 | 146 to 148 °C | CC(C)c1cccc(C(C)C)c1NC(=O)CC(=O)CC(c1ccccc1)c1ccccc1
2 | 234 to 235 °C | CCCCC[C@H]1CC[C@H](c2ccc(C(N)=O)cc2)CC1
3 | 258 to 260 °C | CCCCC1Cc2c(c3cccnc3n(-c3ccc(F)cc3)c2=O)O1 (stereo unspecified)
4 | 213 to 215 °C | CCOC(=O)c1cc(=O)cc(-c2ccccc2O)o1
5 | 110 to 112 °C | CON=C(C(N)=NO)c1ccccc1COc1ccccc1C
6 | 210 to 211 °C | O=C(O)COc1cccc2c1CC(S(=O)(=O)Cc1ccccc1)c1sc(-c3ccc(F)cc3)nc1-2 (stereo unspecified)
7 | 171 to 173 °C | CCOC(=O)Nc1cnc(NCCCOc2cccc(CN3CCCCC3)c2)[nH]c1=O
8 | 214 to 216 °C | O=C(O)c1cn(C2CC2)c2cc(F)c(F)c(NCc3ccccc3)c2c1=O
9 | 163 to 164 °C | COc1cccc(CC(=O)O)c1OCc1cc(OCc2ccc3ccccc3n2)nn1C(C)C
10 | 225 to 226 °C | COc1ccc(C(=O)COc2ccc(C(=O)O)c(O)c2)cc1C12CC3CC(CC(C3)C1)C2
11 | 140 to 141 °C | Cc1cc(Cl)cc(COc2cccc(OCc3ccc4cc(F)ccc4n3)c2)c1OCC(=O)O
12 | 115 to 120 °C | CC(C)(C)OC(=O)NC(=O)C(N)OCc1ccccc1 (stereo unspecified)
13 | 85 to 95 °C | C[C@@H](Oc1ccc2c(c1)N(C)C(=O)N(c1ccc(Cl)cc1)S2(=O)=O)C(=O)O
14 | 125 to 128 °C | CCOC(=O)C(=O)Nc1nc(CN2CCN(C(c3ccccc3)c3ccccc3)CC2)cs1
15 | 120 to 122 °C | CC(=O)NC(CSC(=O)c1ccccc1OC(C)=O)C(=O)O (stereo unspecified)
16 | 63 °C | O=C(C#CCO)c1ccc(F)cc1
17 | 109 to 111 °C | CCOC(=O)c1ccc(Cc2ccccc2)cn1
18 | 87 to 88 °C | CCOC(=O)c1cc2ccc([Si](C)(C)C)cc2n1Cc1cccc(F)c1

Row | melting point | Compound
19 | 160 to 168 °C | CCOC(=O)c1ncc2[nH]c3cccc(Cc4ccccc4)c3c2c1COC
20 | 54 to 57 °C | COC(=O)[C@H](Cc1c[nH]c2ccccc12)NC(=O)CCC(=O)[C@H](Cc1ccccc1)NC(=O)OC(C)(C)C
21 | 134 to 135 °C | CCOC(=O)c1cc(NCc2c(C)cccc2C)c2nc(COC)n(C)c2c1
22 | 172 to 174 °C | COc1ccc2cc(C(=O)CNC(=O)c3ccccc3)ccc2c1
23 | 207 to 208 °C | COC(=O)c1sccc1Nc1ccc(Cl)cc1[N+](=O)[O-]
24 | 144 °C | CC(C)(C)OC(=O)N1CCCC1(Cc1ccc(Br)cc1)C(=O)O (stereo unspecified)
25 | 107 to 108 °C | COC(=O)c1csc(-c2ccc(C#N)cc2)n1
26 | 169 to 172 °C | CC(=O)c1cc(-c2ccc(S(C)(=O)=O)cc2)c(-c2ccc(F)cc2)s1
27 | 129 to 130 °C | CCOc1cc(OCCCc2cn(-c3ccc(C(F)(F)F)cn3)nc2C)ccc1CCC(=O)O
28 | 150 to 151 °C | CCOC(=O)C1=C(C)NC(C)=C(C(=O)OCC)C1c1ccc(F)cc1
29 | 83 to 84 °C | CCOC(=O)COc1ccccc1C(O)(CC)c1cccc(Cl)c1 (stereo unspecified)
30 | 162 to 165 °C | CCn1c(=O)c(C(=O)O)c(O)c2ccc(C)nc21
31 | 176 to 178 °C | COCCN(C)Cc1ncc(C(=O)Nc2nc3c(OC)ccc(N4CCOCC4)c3s2)n1C
32 | 95.5 to 96 °C | COC(=O)c1ccc(C#CCCO)cc1
33 | 114 to 116 °C | CN(Cc1cc2c(=O)c(C(=O)NCc3ccc(Cl)cc3)cn(C)c2o1)CC(O)c1nccs1 (stereo unspecified)
34 | 228 to 229 °C | CCCOc1ccccc1C=C1Oc2ccc(C(=O)O)cc2C1=O
35 | 148 to 151 °C | Cc1nc(N2CCN(CC3CC3)C2=O)sc1C(=O)NCc1ccccn1
36 | 145 to 149 °C | CCC(O)=C1SC(=S)N(c2ccc(Cl)cc2)C1=O

The next lines start with the molecule.

Row | Compound | melting point
37 | Clc1nc(Cl)nc(C2CC2)n1 | 106 to 107 °C
38 | CC(C)(O)CN1c2cccnc2C(N)=CC1Cc1ccccc1 (stereo unspecified) | 211 to 213 °C
39 | CC(C#N)c1ccc(-c2nc3ccccc3o2)cc1 (stereo unspecified) | 116 to 117 °C
40 | COc1cccc(-c2cccc3c2CCn2cc(-c4ccccc4)nc2C3OC2CCN(C)CC2)c1 (stereo unspecified) | 93 °C
41 | COC(=O)CCCC#CCn1c(-c2ccccc2)c(-c2ccccc2)n(-c2ccccc2)c1=O | 133 to 134 °C
42 | N#Cc1ccc2c(c1)C(=O)c1ccccc1CN2 | 235 to 236 °C
43 | COC(=O)c1ccc(-n2cc(-c3ccc4c(c3)C(C)(C)CCC4(C)C)cn2)cc1 | 229 to 232 °C
44 | C[C@H](NC(=O)CCS)C(=O)O | 64 °C
45 | CC(C)(C)c1cc(C2=Cc3cc(-c4ccccc4)ccc3C2)cc(C(C)(C)C)c1 | 122 to 123 °C
46 | COc1cc(C=O)cc(Cl)c1Cl | 97 to 98.5 °C
47 | C(=C1/CCCc2ccccc21)/c1cnc[nH]1 | 136 to 138 °C
48 | N#CCc1c[nH]c2cccnc12 | 201 to 202 °C
49 | CC(C)COC(=O)C(=O)c1csc(N)n1 | 105 to 108 °C
50 | Cc1nc2cc(Nc3ncc4ccc(-c5cccc(S(=O)(=O)NC(C)(C)C)c5)n4n3)ccc2o1 | 212 to 214 °C
51 | OC1OC2C(Br)C3CC1C2C3 (stereo unspecified) | 61 °C
52 | COc1ccc2ccc3c(c2c1)C=C(C#N)CO3 | 134 °C
53 | Nc1sc2c(c1C(=O)c1ccc3c(c1)Cc1ccccc1-3)CCN(Cc1ccccc1)C2 | 197 to 200 °C
54 | Cc1ncncc1C(=O)Nc1ccc(-n2nc(C(F)(F)F)c(Cl)c2C2CC2)c(F)c1 | 183 to 185 °C
55 | Cc1c(-c2ccccn2)c(N2CC[C@H](N(C)C)C2)c2oc(C3CC3)nc2c1C#N | 150 to 151 °C
56 | O=C(c1ccc(Cl)cc1)c1cccc(CBr)c1 | 123 to 125 °C
57 | OCC(O)Cc1ccc(Br)cc1 (stereo unspecified) | 60.6 °C
58 | CNC(=NCCSCc1[nH]cnc1C)NS(=O)(=O)c1ccccc1 | 156 to 158 °C

Row | Compound | melting point
59 | COC(=O)C=CC1C(C(=O)OC(C#N)c2cccc(Oc3ccccc3)c2)C1(C)C (stereo unspecified) | 98 °C
60 | Cc1nc2cc(C)c(OCC(C)(C)CS(N)(=O)=O)nn2n1 | 217 to 218 °C
61 | Nc1nc(-c2cccnc2Cl)c(-c2cccnc2Cl)o1 | 243 to 244 °C
62 | Cn1ccnc1Sc1ccc(Cl)cc1[N+](=O)[O-] | 143 to 145 °C
63 | CCCCn1nc(SC2CCC(CC(=O)O)CC2)c(C(=O)O)c1Cc1cc2c(cc1Cl)OCO2 (stereo unspecified) | 100 °C
64 | Brc1ccc2c(c1)C(c1ccccn1)=NCc1nnc(Br)n1-2 | 236 to 238 °C
65 | O=C(O)c1cn(C2CCN(c3c(F)cc4c(=O)c(C(=O)O)cn(C5CC5)c4c3F)C2)nn1 (stereo unspecified) | 222 to 225 °C
66 | CC(C)(C)OC(=O)N1CCN(c2ccc(C#N)c(F)c2)CC1 | 130 to 131 °C
67 | O=C(O)c1cnn2c(C(F)(F)F)cc(-c3cccc(C(F)(F)F)c3)nc12 | 212 °C
68 | Nc1nc(CN2C(=O)C3(COc4cc5c(cc43)OCO5)c3ccccc32)cs1 (stereo unspecified) | 230 to 235 °C
69 | CC1CN(c2ccccc2)N=C1N (stereo unspecified) | 83 to 84 °C
70 | O=S(=O)(Nc1cccc(CCOCc2csc(-c3ccc(OC(F)(F)F)cc3)n2)c1)C(F)(F)F | 115 to 116 °C
71 | O=C1CN2CCC1CC2 | 58 °C
72 | COc1ccc2c3c1OC1CCCC4(O)C(C2)N(C(=O)C2CCC2)CCC314 (stereo unspecified) | 140 °C
73 | COc1cc2c(cc1Cl)C(O)(c1ccccc1Cl)C(=O)N2 (stereo unspecified) | 237 to 240 °C
74 | Cc1nnc2c(Cl)nc3ccccc3n12 | 215 to 222 °C
75 | COc1nc(Nc2ccc(Cl)cc2[N+](=O)[O-])nc(OC)n1 | 206 to 208 °C
76 | COCCOc1ccn(O)c(=O)c1 | 134 °C
77 | Nc1nc(NCCOc2ccccc2)nc(-c2cc(Cl)ccc2Cl)n1 | 172 to 173 °C
78 | CCn1c(C(C)N(C)S(=O)(=O)c2ccc(Cl)c(Cl)c2)cnc1Oc1ccc(Cl)cc1 (stereo unspecified) | 142 to 144 °C
79 | C[C@@H]1O[C@@]1(Cn1cncn1)c1cc(F)ccc1F | 69 °C
80 | COc1cc(COc2nn(-c3ccccc3)cc2CO)ccc1OCc1nc(-c2ccco2)oc1C | 127 to 128 °C

Row | Compound | melting point
81 | CC1=CC(=O)C(C)=C(C)C1=O | 28 °C
82 | O=C1NC(=O)C2(CCOC2)N1 (stereo unspecified) | 202 to 204 °C
83 | CCOC(=O)c1ncn2c1[C@@H]1CCCN1C(=O)c1cc([N+](=O)[O-])ccc1-2 | 191 to 193 °C
84 | CC(C)(C)c1cc(SCCOC(=O)c2cc(C(C)(C)C)c(OC(=O)c3cc(C(C)(C)C)c(O)c(C(C)(C)C)c3)c(C(C)(C)C)c2)cc(C(C)(C)C)c1O | 168 to 170 °C
85 | Cc1noc(NS(=O)(=O)c2ccccc2-c2ccc(-c3ncco3)cc2CN2OCC(C)(C)C2=O)c1C | 95 to 100 °C
86 | CS(=O)(=O)Cc1c(C(=O)NN2CCCCC2)nn(-c2ccc(Cl)cc2Cl)c1-c1ccc(Cl)cc1 | 171 °C
87 | CC(=O)OCCCS(=O)(=O)c1ccc(S(N)(=O)=O)s1 | 103 to 104 °C
88 | O=C(O)c1c(-c2ccccc2)c2cc(OCc3ccccc3)ccc2n1Cc1cc2c(cc1Cl)OCO2 | 213 to 214 °C
89 | CC(=O)NC[C@H]1CN(c2ccc(C3CCOCC3)c(F)c2)C(=O)O1 | 191 to 192 °C
90 | C/C(=C/C#N)c1ccc2c(c1)C(C)(C)OC(=O)N2 | 213 to 215 °C
91 | CCOC(=O)C=CN1C(C)(C)CC(OC(=O)CC(=O)OC2CC(C)(C)N(C=CC(=O)OCC)C(C)(C)C2)CC1(C)C | 100 to 102 °C
92 | COCOC1CCC2(C)C(=CCC3C4CCC(=O)C4(C)CCC32)C1 (stereo unspecified) | 130 to 132 °C
93 | Nc1nc(OCOC(=O)C2CCCC2)ncc1F | 101 to 104 °C
94 | CCC(CC)Sc1cc(S(N)(=O)=O)c(N)cc1Cl | 118 to 120 °C
95 | O=C(NC1CCCCC1)c1ccccc1I | 148 to 149 °C
96 | Nc1cc(OC2CCNCC2)c(F)c2c1c(=O)c(C(=O)O)cn2C1CC1 | > 300 °C
97 | CCc1ccc(-c2nc3cccnc3n2-c2ccc(CCNC[C@H](O)COc3ccc(O)cc3)cc2)cc1 | 75 to 78 °C
98 | CC(=O)NCC1CC(c2ccc(-n3cccc3)c(F)c2)=NO1 (single isomer, unassigned; (-)) | 176 to 177 °C
99 | CC(C)(C)c1nc(C(O)CCC2CCNCC2)c2ccccc2n1 (stereo unspecified) | 110 °C
100 | O=C(CN1CCC(Cc2ccccc2)CC1)Nc1ccc(O)cc1 | 66 to 70 °C
101 | Cc1cccc(C(=O)NC(Nc2c(Nc3cccnc3Cl)c(=O)c2=O)C(C)(C)C)c1 (stereo unspecified) | 238 to 239 °C
